From patent US20100222337A1, “FUNGICIDAL COMPOSITION CONTAINING CARBOXYLIC ACID AMIDE DERIVATIVE” (Ishihara Sangyo Kaisha, Ltd., priority 2005, published 2010)

Tests used:
Botrytis cinerea = experiment: Test on preventive effect against kidney bean gray mold; format: in vivo; conditions: 500 ppm, spray on kidney bean (Taisyou Kintoki), 3 to 4 days after inoculation
sheath blight of rice = conditions: as disclosed in Patent Document 2 (JP-A-2005-179234); cited from earlier work
Erysiphe graminis = conditions: 500 ppm, spray on wheat (Norin-61-go) at 1.5-leaf stage, preventive, 6 to 7 days after inoculation
Protocol: In each test, the controlling index was determined on the basis of the following standards:
Wheat (cultivar: Norin-61-go) was cultivated in a plastic pot having a diameter of 7.5 cm, and when it reached 1.5-leaf stage, 10 ml of a chemical solution having the carboxylic acid amide derivative of the formula (I) or a salt thereof adjusted to a prescribed concentration, was applied by a spray gun. After the chemical solution dried (the same day as the application), conidia of Erysiphe graminis were dusted and inoculated and maintained in a constant temperature chamber at 20° C. From 6 to 7 days after the inoculation, the area of sporulation was investigated, and the controlling index was determined in accordance with the above evaluation standards.

Row | SMILES | controlling index (length of lesions) (Botrytis cinerea) | effect against sheath blight of rice (sheath blight of rice) | controlling index (area of sporulation) (Erysiphe graminis) | melting point [°C]
1 | CC(C)(NC(=O)c1ccncc1F)C(=O)c1ccc(-c2ccc(OC(F)(F)F)cc2)cc1 [Comparative Compound 1, 3-fluoro-N-(2-methyl-1-oxo-1-(4′-(trifluoromethoxy)biphenyl-4-yl)propan-2-yl)isonicotinamide] | 1 (Length of lesions, number of lesions or area of sporulation is at least 70% of non-treated plot) | effective | 1 (Length of lesions, number of lesions or area of sporulation is at least 70% of non-treated plot) | 
2 | Cc1c(C(=O)C(C)(C)NC(=O)c2ncccc2C(F)(F)F)ccc2c1OC(F)(F)O2 [compound No. 2-1, N-[2-[(2,2-difluoro-4-methyl-1,3-benzodioxolan-5-yl)carbonyl]-2-propyl]-3-trifluoromethyl-2-pyridinecarboxamide] |  |  |  | 130 to 134
